Here are results for six compounds from US3963711A, “Cyanomethyl sulfinyl- and sulfonyl-acetamido cephalosporins” (SmithKline Corporation, priority 1975, dated 1976).

Values after ≈ are worked out from the molar mass of the structure shown.

What all share (assay type): cell-based
The subject of one test is S. aureus HH 127. Description: MIC by standard agar inclusion method, S. aureus HH 127. The settings on record: Staphylococcus aureus, HH127.
The next test concerns S. aureus SK 23390. Nature of the test: MIC by standard agar inclusion method, S. aureus SK 23390. The settings on record: Staphylococcus aureus, SK23390.
Another test has as its system S. aureus Villaluz. Nature of the test: MIC by standard agar inclusion method, S. aureus Villaluz. The settings on record: Staphylococcus aureus.
For another test, the system named is Strep. faecalis HH 34358. Description: MIC by standard agar inclusion method, Strep. faecalis HH 34358. The conditions noted are these: Enterococcus faecalis, HH34358.
A further test deals with E. Coli SK 12140. Description: MIC by standard agar inclusion method, E. Coli SK 12140. The conditions noted are these: Escherichia coli.
The test system of another test is E. Coli HH 33779. Description: MIC by standard agar inclusion method, E. Coli HH 33779. The conditions noted are these: Escherichia coli.
A further test relates to Kleb. pneumo. SK 4200. Description: MIC by standard agar inclusion method, Kleb. pneumo. SK 4200.
The next test deals with Kleb. pneumo. SK 1200. Nature of the test: MIC by standard agar inclusion method, Kleb. pneumo. SK 1200.
In another test the test system is Salmonella ATCC 12176. Description: MIC by standard agar inclusion method, Salmonella ATCC 12176. The conditions noted are these: ATCC12176.
A further test deals with Shigella paradysentiae. Description: MIC by standard agar inclusion method, Shigella paradysentiae.
In a further test the test system is Pseudo. aeruginosa HH63. Nature of the test: MIC by standard agar inclusion method, Pseudo. aeruginosa HH63. The conditions noted are these: Pseudomonas aeruginosa.
Test [1] has as its system Serratia marc. ATCC 13880. Nature of the test: MIC by standard agar inclusion method, Serratia marc. ATCC 13880. The settings on record: ATCC13880.
For test [2], the system named is Entero. aerogenes ATCC 13048. Nature of the test: MIC by standard agar inclusion method, Entero. aerogenes ATCC 13048. The conditions noted are these: Klebsiella aerogenes, ATCC13048.

As a reminder, the MIC is the lowest concentration that inhibits growth of the organism.

For `CC(=O)OCC1=C(C(=O)O)N2C(=O)C(NC(=O)CS(=O)(=O)CC#N)C2SC1` (stereo not drawn) [Compound 90246, 7-cyanomethylsulfonylacetamidocephalosporanic acid], the minimum inhibitory concentration (MIC) in the test on S. aureus HH 127 is 1.6 µg/mL (≈ 3.83 µM); in the test on S. aureus SK 23390, 1.6 µg/mL (≈ 3.83 µM); against S. aureus Villaluz, 25 µg/mL (≈ 59.9 µM); in the test with Strep. faecalis HH 34358, 50 µg/mL (≈ 120 µM); with E. Coli SK 12140 it was 6.3 µg/mL (≈ 15.1 µM); with E. Coli HH 33779, 25 µg/mL (≈ 59.9 µM). Also, the minimum inhibitory concentration (MIC) is 25 µg/mL (≈ 59.9 µM) in the test with Kleb. pneumo. SK 4200; 6.3 µg/mL (≈ 15.1 µM) against Kleb. pneumo. SK 1200; 3.1 µg/mL (≈ 7.43 µM) in the test with Salmonella ATCC 12176; 6.3 µg/mL (≈ 15.1 µM) against Shigella paradysentiae; over 200 µg/mL in the test on Pseudo. aeruginosa HH63; over 200 µg/mL in test [1]. In test [2], the MIC was determined as 50 µg/mL (≈ 120 µM).

With `Cc1nnc(SCC2=C(C(=O)O)N3C(=O)C(NC(=O)CSCC#N)[C@H]3SC2)s1` (stereo partly drawn) [Compound 21436, 7-Cyanomethylmercaptoacetamido-3-(5-methyl-1,3,4-thiadiazol-2-ylthiomethyl)-3-cephem-4-carboxylic acid], the MIC with S. aureus HH 127 stood at 0.2 µg/mL (≈ 0.437 µM); against S. aureus SK 23390 it was 0.1 µg/mL (≈ 0.219 µM); against S. aureus Villaluz it was 25 µg/mL (≈ 54.6 µM); in the test with Strep. faecalis HH 34358 it was 6.3 µg/mL (≈ 13.8 µM); in the test on E. Coli SK 12140, 1.6 µg/mL (≈ 3.5 µM); against E. Coli HH 33779, 6.3 µg/mL (≈ 13.8 µM). Moreover, the minimal inhibitory concentration (MIC) against Kleb. pneumo. SK 4200 was 1.6 µg/mL (≈ 3.5 µM); in the test on Kleb. pneumo. SK 1200 it was 0.8 µg/mL (≈ 1.75 µM); in the test on Salmonella ATCC 12176, 1.6 µg/mL (≈ 3.5 µM); in the test on Shigella paradysentiae, 1.6 µg/mL (≈ 3.5 µM); with Pseudo. aeruginosa HH63 it was over 200 µg/mL; in [1], over 200 µg/mL. In addition, the minimum inhibitory concentration (MIC) in test [2] is over 200 µg/mL.

As for `Cc1nnc(SCC2=C(C(=O)O)N3C(=O)C(NC(=O)CS(=O)(=O)CC#N)[C@H]3SC2)s1` (stereo partly drawn) [Compound 09346, 7-Cyanomethylsulfonylacetamido-3-(5-methyl-1,3,4-thiadiazol-2-ylthiomethyl)-3-cephem-4-carboxylic acid], the minimal inhibitory concentration (MIC) was 1.6 µg/mL (≈ 3.27 µM) with S. aureus HH 127; 1.6 µg/mL (≈ 3.27 µM) in the test on S. aureus SK 23390; 100 µg/mL (≈ 204 µM) in the test on S. aureus Villaluz; 25 µg/mL (≈ 51.1 µM) with Strep. faecalis HH 34358; 3.1 µg/mL (≈ 6.33 µM) in the test with E. Coli SK 12140; 6.3 µg/mL (≈ 12.9 µM) against E. Coli HH 33779. Further, the MIC against Kleb. pneumo. SK 4200 was 6.3 µg/mL (≈ 12.9 µM); in the test with Kleb. pneumo. SK 1200, 3.1 µg/mL (≈ 6.33 µM); in the test on Salmonella ATCC 12176, 6.3 µg/mL (≈ 12.9 µM); in the test with Shigella paradysentiae it was 3.1 µg/mL (≈ 6.33 µM); in the test on Pseudo. aeruginosa HH63, over 200 µg/mL; in test [1], over 200 µg/mL. For the same compound, in [2], inhibition of growth (MIC) required 12.5 µg/mL (≈ 25.5 µM).

Consider `CC(=O)OCC1=C(C(=O)O)N2C(=O)C(NC(=O)CSCC#N)C2SC1` (stereo not drawn) [Compound 79336, 7-Cyanomethylmercaptoacetamidocephalosporanic acid], for which the MIC with S. aureus HH 127 turned out to be 0.2 µg/mL (≈ 0.519 µM); against S. aureus SK 23390 it was 0.8 µg/mL (≈ 2.08 µM); in the test on S. aureus Villaluz it was 25 µg/mL (≈ 64.9 µM); against Strep. faecalis HH 34358 it was 12.5 µg/mL (≈ 32.4 µM); with E. Coli SK 12140 it was 6.3 µg/mL (≈ 16.3 µM); in the test on E. Coli HH 33779, 12.5 µg/mL (≈ 32.4 µM). For the same compound, the MIC was 1.6 µg/mL (≈ 4.15 µM) in the test with Kleb. pneumo. SK 4200; 6.3 µg/mL (≈ 16.3 µM) against Kleb. pneumo. SK 1200; 1.6 µg/mL (≈ 4.15 µM) in the test with Salmonella ATCC 12176; 6.3 µg/mL (≈ 16.3 µM) against Shigella paradysentiae; over 200 µg/mL in the test on Pseudo. aeruginosa HH63; over 200 µg/mL in [1]. This compound also showed an MIC in test [2] of over 200 µg/mL.

With `Cn1nnnc1SCC1=C(C(=O)O)N2C(=O)C(NC(=O)CSCC#N)[C@H]2SC1` (stereo partly drawn) [Compound 94436, 7-Cyanomethylmercaptoacetamido-3-(1-methyltetrazol-5-ylthiomethyl)-3-cephem-4-carboxylic acid], the MIC in the test with S. aureus HH 127 was found to be 0.4 µg/mL (≈ 0.906 µM); in the test with S. aureus SK 23390, 0.4 µg/mL (≈ 0.906 µM); against S. aureus Villaluz, 12.5 µg/mL (≈ 28.3 µM); in the test with Strep. faecalis HH 34358 it was 50 µg/mL (≈ 113 µM); against E. Coli SK 12140, 0.8 µg/mL (≈ 1.81 µM); against E. Coli HH 33779, 1.6 µg/mL (≈ 3.62 µM). Further, the MIC against Kleb. pneumo. SK 4200 was 1.6 µg/mL (≈ 3.62 µM); in the test on Kleb. pneumo. SK 1200, 1.6 µg/mL (≈ 3.62 µM); against Salmonella ATCC 12176 it was 0.4 µg/mL (≈ 0.906 µM); against Shigella paradysentiae, 0.8 µg/mL (≈ 1.81 µM); with Pseudo. aeruginosa HH63, over 200 µg/mL; in [1], over 200 µg/mL. In test [2], it took 12.5 µg/mL (≈ 28.3 µM) to inhibit growth (MIC).

With `Cn1nnnc1SCC1=C(C(=O)O)N2C(=O)C(NC(=O)CS(=O)(=O)CC#N)[C@H]2SC1` (stereo partly drawn) [Compound 72346, 7-Cyanomethylsulfonylacetamido-3-(1-methyltetrazol-5-ylthiomethyl)-3-cephem-4-carboxylic acid], the MIC with S. aureus HH 127 came out at 1.6 µg/mL (≈ 3.38 µM); in the test with S. aureus SK 23390 it was 1.6 µg/mL (≈ 3.38 µM); in the test with S. aureus Villaluz it was 25 µg/mL (≈ 52.8 µM); in the test on Strep. faecalis HH 34358, 50 µg/mL (≈ 106 µM); in the test with E. Coli SK 12140 it was 1.6 µg/mL (≈ 3.38 µM); in the test with E. Coli HH 33779 it was 3.1 µg/mL (≈ 6.55 µM). Also, the MIC is 1.6 µg/mL (≈ 3.38 µM) with Kleb. pneumo. SK 4200; 1.6 µg/mL (≈ 3.38 µM) against Kleb. pneumo. SK 1200; 1.6 µg/mL (≈ 3.38 µM) with Salmonella ATCC 12176; 1.6 µg/mL (≈ 3.38 µM) in the test on Shigella paradysentiae; over 200 µg/mL with Pseudo. aeruginosa HH63; over 200 µg/mL in test [1]. For the same compound, the MIC in [2] is 6.3 µg/mL (≈ 13.3 µM).
